Data published in PubChem BioAssay (NCI).
Several values for one entry are separate records, joined by “and”; a condition that tells them apart may be missing. Equal values may be shown once.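 Five concentrations, 48 hours, 96-well plates. GI50 = concentration required for 50% inhibition of growth. The concentration for full growth arrest is given as TGI.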

Key:
Assay in all cases: DTP human tumour cell line panel, 48 h
A498 renal = tested on: A498 renal
ACHN renal = tested on: ACHN renal
EKVX NSCLC = tested on: EKVX NSCLC
HL-60(TB) leukemia = tested on: HL-60(TB) leukemia
HOP-92 NSCLC = tested on: HOP-92 NSCLC
M14 melanoma = tested on: M14 melanoma
RPMI-8226 leukemia = tested on: RPMI-8226 leukemia
SK-OV-3 ovarian = tested on: SK-OV-3 ovarian
SNB-19 CNS = tested on: SNB-19 CNS
SNB-75 CNS = tested on: SNB-75 CNS

Structure (SMILES) | GI50 (A498 renal) | TGI (A498 renal) | GI50 (ACHN renal) | TGI (ACHN renal) | GI50 (EKVX NSCLC) | TGI (EKVX NSCLC) | GI50 (HL-60(TB) leukemia) | TGI (HL-60(TB) leukemia) | GI50 (HOP-92 NSCLC) | TGI (HOP-92 NSCLC) | GI50 (M14 melanoma) | TGI (M14 melanoma) | GI50 (RPMI-8226 leukemia) | TGI (RPMI-8226 leukemia) | GI50 (SK-OV-3 ovarian) | TGI (SK-OV-3 ovarian) | GI50 (SNB-19 CNS) | TGI (SNB-19 CNS) | GI50 (SNB-75 CNS) | TGI (SNB-75 CNS)
COc1ccc2nc3ccc(OC)cc3c(SCCCN)c2c1 | 19.4 µM | 56.5 µM | 4.72 µM | 19.5 µM | 15.9 µM | 35.6 µM | 4.34 µM | 9.49 µM | 3.59 µM | 13.1 µM | 8.48 µM | 31.1 µM | 1.78 µM | 3.92 µM | 14.2 µM | 29.9 µM | 14.4 µM | 36.7 µM | 13 µM | 27.9 µM
Cc1ccc(NC(=O)CCC(=O)C2CC(=O)CC/C2=N\NC(=O)c2cc3ccccc3cc2O)cc1C (centres undefined) |  | > 100 µM |  | > 100 µM |  | 99.6 µM |  | 29.9 µM |  | > 100 µM |  | 88.9 µM |  | > 100 µM |  | > 100 µM |  | > 100 µM |  | > 100 µM
O=C(N[C@@H]1CCCc2ccccc21)[C@H](CCC(=O)N1CCN(C2CCCCC2)CC1)N1C(=O)[C@@H](N2C(=O)OC[C@@H]2c2ccccc2)[C@H]1/C=C/c1ccccc1 | 1.76 µM | 5.3 µM | 2.78 µM | 22.1 µM | 2.52 µM | > 100 µM | 2.1 µM | 5.71 µM | 1.58 µM | 5.18 µM | 1.47 µM | 3.31 µM | 1.54 µM | 5.34 µM | 3.02 µM | 14 µM | 3.66 µM | 25.2 µM | 1.32 µM | 4.19 µM
O=c1c2ccccc2nc(-c2ccccc2)n1NCC1(O)OCC(O)C(O)C1O (centres undefined) |  | > 100 µM |  | > 100 µM |  | > 100 µM |  | > 100 µM |  | > 100 µM |  | > 100 µM |  | > 100 µM |  | > 100 µM |  | > 100 µM |  | > 100 µM
COc1cc(C(c2cc3c(cc2O)OCO3)N2CCCC2)cc(OC)c1OC (centres undefined) |  | 36.8 µM |  | 28.8 µM |  | 30 µM |  | 6.06 µM |  | 20 µM |  | > 100 µM |  | 41.5 µM |  | > 100 µM |  | 38.2 µM |  | 32.7 µM
O=C1c2c(O)cccc2C(C(=O)CCCCC(=O)C2c3cccc(O)c3C(=O)c3c(O)cccc32)c2cccc(O)c21 | 2.14 µM | 5.27 µM and 7.36 µM | 2.04 µM | 1.95 µM and 6.17 µM | 1.55 µM | 1.64 µM and 3.68 µM | 0.744 µM | 1.14 µM and 1.67 µM | 1.3 µM | 1.69 µM and 2.8 µM | 1.75 µM | 2.54 µM and 5.03 µM | 1.04 µM | 1.3 µM and 3.08 µM | 0.921 µM | 1.14 µM and 1.75 µM | 0.529 µM | 1.35 µM and 1.89 µM | 1.4 µM | 3.44 µM and 3.32 µM
CCN(CC)CCC(=O)Nc1ccc(Cn2nnc3c2C(=O)c2nnn(Cc4ccc(NC(=O)CCN(CC)CC)cc4)c2C3=O)cc1 | 2.45 µM | 9.49 µM | 12.5 µM | 34.1 µM | 1.54 µM | 3.05 µM | 0.228 µM | 0.628 µM | 0.325 µM | 0.913 µM | 1.49 µM | 3.43 µM | 0.53 µM | 3.15 µM | 2.08 µM | 5.88 µM | 0.186 µM | 0.373 µM | 0.314 µM | 0.88 µM
C[C@@H](NC(=O)Cc1cc(F)cc(F)c1)C(=O)N[C@@]1(C)N=C(c2ccccc2)c2ccccc2N(C)C1=O | 1.13 µM | 42.6 µM | > 84.5 µM | > 100 µM | 30.2 µM | > 85.8 µM | 10.6 µM | > 55.4 µM | 19.8 µM | > 67.7 µM | 26 µM | > 86.6 µM | 2.11 µM | 10.5 µM | > 100 µM | > 100 µM | > 100 µM | > 100 µM | > 95.3 µM | > 100 µM
CN1CCCC1c1cccnc1.O=C(O)c1ccccc1O.O=C([O-])c1ccccc1[OH2+].O=C([O-])c1ccccc1[OH2+].O=C([O-])c1ccccc1[OH2+].[Mn+2] (centres undefined) | > 100 µM | > 100 µM | > 100 µM | > 100 µM | > 100 µM | > 100 µM | > 100 µM | > 100 µM | > 100 µM | > 100 µM | > 100 µM | > 100 µM | 92.7 µM | > 100 µM | > 100 µM | > 100 µM | > 100 µM | > 100 µM | > 100 µM | > 100 µM
Oc1cc2cc(-c3ccccc3)[nH]c2c2ccccc12 |  | > 100 µM |  | > 88.3 µM |  | > 100 µM |  | > 100 µM |  | > 95.6 µM |  | 61 µM |  | 67.6 µM |  | > 100 µM |  | > 70.2 µM |  | > 100 µM
COc1cc2oc3ccccc3c(=O)c2cc1CSc1ccccc1N |  | > 73.5 µM |  | > 100 µM |  | > 100 µM |  | 64.8 µM |  | > 100 µM |  | > 100 µM |  | > 87.6 µM |  | > 100 µM |  | > 100 µM |  | > 100 µM
O=C(CCCCCCCCC(=O)OCC1OC(n2cnc3c(=O)[nH]cnc32)C(O)C1O)OCC1OC(n2cnc3c(=O)[nH]cnc32)C(O)C1O (centres undefined) |  | > 100 µM |  | > 100 µM |  | > 100 µM |  | > 100 µM |  | > 100 µM |  | > 100 µM |  | > 100 µM |  | > 100 µM |  | > 100 µM |  | > 100 µM
N#CC1c2ccccc2-c2ccccc2N1C(=O)c1ccccc1 (centres undefined) | 1.32 µM | 5.55 µM | 4.05 µM | > 100 µM | 7.2 µM | > 100 µM | 0.337 µM |  | 2.42 µM | 19.9 µM | 1.47 µM | 7.1 µM | 0.903 µM | 5.32 µM | 4.36 µM | > 45.2 µM | 4.12 µM | > 100 µM | 2.43 µM | > 49.4 µM
